The structures appear in SMILES notation.

For 1 compound, IC50 results are on record in paper PMC5615432, “HM71224, a selective Bruton’s tyrosine kinase inhibitor, attenuates the development of murine lupus” (Arthritis Research & Therapy, 2017).

This assay has as its target Bruton's tyrosine kinase (BTK) (Homo sapiens, UniProt Q06187). The assay can be described thus: immunoblot of BTK Y223 autophosphorylation in anti-IgM-stimulated Ramos cells. Type of assay: cell-based. In general terms: In western blotting, separated proteins are transferred to a membrane and probed.

Chain of Bruton's tyrosine kinase (BTK) (Q06187 2-659): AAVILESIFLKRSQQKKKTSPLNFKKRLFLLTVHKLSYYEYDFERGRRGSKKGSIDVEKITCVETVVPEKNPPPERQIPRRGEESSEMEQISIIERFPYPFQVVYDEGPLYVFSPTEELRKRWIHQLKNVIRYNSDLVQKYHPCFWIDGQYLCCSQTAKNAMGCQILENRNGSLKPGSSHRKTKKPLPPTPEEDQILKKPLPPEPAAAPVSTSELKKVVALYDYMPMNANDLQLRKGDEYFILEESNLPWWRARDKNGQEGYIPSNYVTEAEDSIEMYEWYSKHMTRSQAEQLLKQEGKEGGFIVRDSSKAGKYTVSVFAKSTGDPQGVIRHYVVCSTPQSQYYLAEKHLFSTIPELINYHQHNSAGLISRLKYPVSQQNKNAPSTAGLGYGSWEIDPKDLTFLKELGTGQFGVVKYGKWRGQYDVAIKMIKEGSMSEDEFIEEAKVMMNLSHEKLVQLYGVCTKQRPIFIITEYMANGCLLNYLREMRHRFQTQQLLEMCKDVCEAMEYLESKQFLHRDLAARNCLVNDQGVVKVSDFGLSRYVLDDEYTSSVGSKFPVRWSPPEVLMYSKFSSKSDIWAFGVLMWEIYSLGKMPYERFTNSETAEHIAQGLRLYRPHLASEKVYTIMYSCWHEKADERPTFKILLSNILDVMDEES

Regarding `C=CC(=O)Nc1cccc(Oc2nc(Nc3ccc(N4CCN(C)CC4)cc3)nc3ccoc23)c1` [HM71224], the IC50 (in general, the point on the concentration scale where inhibition reaches its midpoint) was less than 10 nM.
